This is an account of results in US20220226321A1, “INHIBITOR OF MNK FOR THE TREATMENT OF NEUROPATHIC PAIN” (Board of Regents, The University of Texas System, priority 2019, published 2022).

The subject of test [1] is mice. To be noted: Moy et al. (2017); cited from earlier work.
In test [2] the test system is DRG neurons. The settings on record: prior work; cited from earlier work.
The subject of test [3] is infralimbic cortex. To be noted: neuropathic mice (Shiers et al., 2018); cited from earlier work.
For test [4], the system named is SNI mice. The settings on record: neuropathic mice (Shiers et al., 2018); cited from earlier work.
The subject of test [5] is DRG neurons. The test can be described thus: patch-clamp electrophysiology of DRG neurons exposed to IFN-α. To be noted: 300 U/mL, ~1 h. (The patch-clamp technique gives a direct electrical read-out from membranes.)
For test [6], the system named is eIF4E. Nature of the test: immunocytochemistry of p-eIF4E in cultured DRG neurons. It is filed as cell-based, mouse. To be noted: 300 U/mL, one-hour stimulation. The protocol: Immunofluorescence. For primary neuronal cultures, DRG neurons were harvested and cultured for 6 days according to the protocol described above with the exception that cells were distributed evenly on poly-D-lysine-coated 8-well chamber slide with removable wells (cat #12-565-8, Fisher Scientific). After treatments, cells were fixed in ice-cold 10% formalin in 1×PBS for 1 h and processed for immunocytochemistry (ICC). Cells were washed with 1×PBS and permeabilized in 1×PBS containing 10% heat-inactivated normal goat serum (NGS; Atlanta Biologicals, Atlanta, Ga.) and 0.02% Triton X-100 (Sigma) in 1×PBS for 30 min and then blocked in 10% NGS in 1×PBS for 2 h. […] Images were taken using an Olympus FluoView 1200 confocal microscope and analyzed with FIJI for Mac OS X. Images shown are representative of samples taken from 3 separate wells and presented as projections of Z stacks. Using ImageJ, the corrected total cell fluorescence (CTCF) was calculated to determine the intensity of the signal between experimental groups. To do so, the integrated density and the area, as well as the background noise was measured and the CTCF calculated as equal to: the integrated density −(area of selected cell×mean fluorescence of background readings). CTCF values from all experimental treatment groups were normalized to vehicle groups and expressed as normalized CTCF.

The test system of test [7] is cultured DRG neurons. Nature of the test: Western blot of cultured DRG neurons treated with IFN-α, IFN-β, ISRIB or poly (I:C). It is filed as cell-based, mouse. The protocol: Primary cell culture of mouse DRG neurons and Western blot. Cultured primary DRG neurons were used to test the effects of IFN-α [(300 units (U)/mL] and IFN-β [(300 units (U)/mL] application. For these experiments, mice were anesthetized with isoflurane and killed by decapitation. Then DRGs, from all spinal levels, were dissected and placed in chilled Hanks balanced-salt solution (HBSS, Invitrogen) until processed. Dorsal root ganglia were digested in 1 mg/mL collagenase A (Roche, Mannheim, Germany) for 25 minutes at 37° C. then subsequently digested in a 1:1 mixture of 1 mg/mL collagenase D and papain (Roche) for 20 minutes at 37° C. After this step, dorsal root ganglia were then triturated in a 1:1 mixture of 1 mg/mL trypsin inhibitor (Roche) and bovine serum albumin (BioPharm Laboratories, Bluffdale, Utah), then filtered through a 70 μm cell strainer (Corning, N.Y.). Cells were pelleted then resuspended in DMEM/F12 with GlutaMAX (Thermo Fisher Scientific, MA) containing 10% fetal bovine serum (FBS; Thermo Fisher Scientific), 5 ng/mL NGF, 1% penicillin and streptomycin, and […] to inhibit mitosis of non-neuronal cells and were distributed evenly in a 6-well plate coated with poly-D-lysine (Becton Dickinson, NJ). DRG neurons were maintained in a 37° C. incubator containing 5% CO2 with a media change every other day. On day 6, DRG neurons were treated with either vehicle, IFN-α or IFN-β for 1, 3, 6 and 24 h. Following treatments, cells were rinsed with chilled 1×PBS buffer, harvested in 200 μL of RIPA lysis buffer (50 mM Tris, pH 7.4, 150 mM NaCl, 1 mM EDTA, pH 8.0, and 1% Triton X-100) containing protease and phosphatase inhibitors (Sigma-Aldrich), and then sonicated for 5 seconds. To clear debris, samples were centrifuged at 14,000 rpm for 15 min at 4° C. Ten to 15 μg of protein was loaded into each well and separated by a 10% SDS-PAGE gel. Proteins were transferred to a 0.45 PVDF membrane (Millipore, MA) at 30 V overnight at 4° C. Subsequently, membranes were blocked with 5% non-fat dry milk in 1× Tris buffer solution containing Tween 20 (TTBS) for at least 2 h. Membranes were washed 3 times for 10 minutes each (3×10) in 1×TTBS, then incubated with primary antibodies overnight at 4° C. The following day, membranes were washed 3×10 each then incubated with the corresponding secondary antibodies at room temperature for 1 h. After incubation, membranes were washed with 1×TTBS 3×10 each. Signals were detected using Immobilon Western Chemiluminescent HRP Substrate (Millipore) and then visualized with Bio-Rad ChemiDoc Touch. Membranes were stripped using Restore Western Blot Stripping buffer (Thermo Fisher Scientific) and reprobed with another antibody. Analysis was performed using Image lab 6.0.1 software for Mac (Bio-Rad, Hercules, Calif.).
For orientation: A western blot detects proteins with antibodies after separation by electrophoresis.

Test [8] deals with mice. Nature of the test: mechanical paw withdrawal threshold (von Frey) after type I IFN or poly (I:C). Type of test: in vivo, mouse. The protocol: (§1) Behavior. Mice were housed on 12-hour light/dark cycles with food and water available ad libitum. Mice were randomized to groups from multiple cages to avoid using mice from experimental groups that were cohabitating. Sample size was estimated by performing a power calculation using G*Power (version 3.1.9.2). With 80% power and an expectation of d=2.2 effect size in behavioral experiments, and a set to 0.05, the sample size required was calculated as n=6 per group. The inventors therefore sought to have at least n=6 sample in all behavioral experiments. SD (set at 0.3) for the power calculation was based on previously published mechanical threshold data from the inventors' lab (Moy et al., 2017). Animals were habituated for 1 hour to clear acrylic behavioral chambers before beginning the experiment. For intraplantar injections, drugs were injected in a total volume of 25 μL through a 30-gauge needle. For intraperitoneal injections, drugs were administered in a volume of 100 μL Mechanical paw withdrawal thresholds in mice were measured using the up-down method (Chaplan et al., 1994) with calibrated von Frey filaments (Stoelting Company, WoodDale, Ill.). Thermal latency was measured using a Hargreaves device (IITC Life Science) (Hargreaves et al., 1988) with heated glass settings of 29° C., 40% active laser power, and 20 sec cutoff were used. The experimenter was blinded to the genotype of the mice and the drug condition in all experiments.

Test [9] concerns mice. Nature of the test: thermal latency (Hargreaves) after type I IFN or poly (I:C). It is filed as in vivo, mouse. As to the method:
as §1

Test [10] has as its system eIF4E. The test can be described thus: immunohistochemistry of p-eIF4E and eIF4E in L5 DRGs. It is filed as in vivo, mouse. The settings on record: WT mice, day 2, 3 hr post 2nd injection. The protocol:
For tissues, animals were anesthetized with isoflurane and killed by decapitation, and tissues were frozen in O.C.T. on dry ice. Spinal cords were pressure ejected using chilled 1×PBS. Sections of L4-L5 DRGs ([…]) were mounted onto SuperFrost Plus slides (Thermo Fisher Scientific) and fixed in ice-cold 10% formalin in 1×PBS for 1 h then subsequently washed 3×10 each in 1×PBS and processed for immunohistochemistry (IHC). Slides were permeabilized in 50% ethanol for 30 min. After 30 min, slides were washed 3×10 each in 1×PBS. Tissues were blocked for at least 2 h in 1×PBS and 10% NGS. Primary antibodies against NeuN, peripherin, p-eIF4E^S209 and eIF4E were applied and incubated with DRG sections on slides at 4° C. overnight. Immunoreactivity was visualized after 1 h incubation with Alexa Fluor secondary antibodies at room temperature. Images were taken using an Olympus FluoView 1200 confocal microscope. Images are presented as projections of Z stacks, and they are representative of samples taken from 3 animals.

A short description of test [11]: body temperature after intraperitoneal poly (I:C). It is filed as in vivo, mouse. The settings on record: 1 mg/kg i.p.
Where [12] appears, read: 1 mg/kg i.p. for 2 consecutive days, 3-24 h after second administration.

For the compound `CC(=O)C1=C(O)C=C2Oc3c(C(N)=O)c(O)cc(O)c3[C@]2(C)C1=O` [cercosporamide], the “cold hypersensitivity induced by peripheral nerve injury” value in test [1] is “reduced”. Besides, the “IL-6 induced DRG nociceptor excitability” value in test [2] is “attenuated”.

With `CN(C)C(=N)N=C(N)N` [metformin], in test [3], the “AIS shrinkage in the IL” value is “attenuated”. For the same compound, the cognitive deficits result in test [4] is reported as “attenuated”.

As for IFN-α, in test [5], the “excitability, number of action potentials elicited by ramp current injections” value was “elevated excitability”; the “latency to the first spike following ramp current injection” value is “shortened the latency”; the “resting membrane potential (RMP)” value is given as -47.5±2.5 mV. Also, the “phosphorylation of eIF4E (ICC)” value in test [6] is listed as “stimulated phosphorylation of eIF4E”. Further, in [7] (300 U/mL), the AKT phosphorylation entry is recorded as “stimulated AKT phosphorylation”; the “ERK and eIF4E phosphorylation” value is reported as “increase”; the “downstream JAK/STAT signaling pathways” value is given as “rapidly activated”. Moreover, the “BiP expression or signaling via PKR and downstream p-eIF2α” value in test [7] (300 U/mL, 1-6 h) is listed as “did not modify”. Besides, the PKR phosphorylation entry in [7] (300 U/mL, long exposure (24 h)) is “did not modify”. Besides, the “mTOR or ribosomal protein S6 phosphorylation” value in [7] (300 U/mL, time course of 6 h) was “did not observe any changes”. The “hind paw mechanical hypersensitivity” value in test [8] (female mice, i.pl. 300 U/25 μL) is listed as “increased hind paw mechanical hypersensitivity”. In addition, the “mechanical hypersensitivity to von Frey filament stimulation” value in test [8] (male mice, i.pl. 300 U/25 μL) is recorded as “rapid mechanical hypersensitivity”. In addition, the thermal hypersensitivity entry in test [9] (female mice, i.pl. 300 U/25 μL) is “no significant changes”. Moreover, the “paw withdrawal latency to thermal stimulation” value in [9] (male mice, i.pl. 300 U/25 μL) is “no significant changes”.

poly (I:C): in test [10], the “phosphorylated eIF4E immunoreactivity in L5 DRGs” value was “increased phosphorylated eIF4E immunoreactivity” and the “total eIF4E protein in L5 DRGs” value is “without affecting total eIF4E protein”. In addition, the core body temperature entry in [11] was “increase in core body temperature”. In addition, in test [7] (direct application 10 μg/mL), the “p-ERK, p-eIF4E, p-PKR or p-eIF2α” value is listed as “did not increase”. For the same compound, the mechanical hypersensitivity entry in test [8] (setting [12]) is given as “developed mechanical hypersensitivity”. In test [9] (setting [12]), the thermal hypersensitivity result was “thermal hypersensitivity”.
